Legend:
[1] = system: Type I spiral ganglion neurons; test: Type I spiral ganglion neuron neurite outgrowth with GSMs; assay type: cell-based, CD-1 mice; conditions: for EC50: 24 h treatment, Type I SGNs; for neurite outgrowth (length of Type I SGN neurites): varying concentrations, 24 h
Experimental: Spiral ganglion neurons (SGNs) were cultured from postnatal day 5 CD-1 mice using methods adapted from Whitlon D S, et al., Scientific Reports, 2015, 5, 15960, doi:10.1038/srep15960. Neurons were dissociated and plated onto collagen-coated 96-well plates in growth media (DMEM/F12, N2 and B27 serum supplements and penicillin/streptomycin). After 18 h in culture, neurons were treated with varying concentrations of RO or NGP-555 for 24 h. Neurons were fixed and stained with a rabbit b-tubulin (somato-axonal marker) antibody followed by a donkey-anti-rabbit secondary antibody conjugated to Alexa 568 and counterstained with Hoechst blue fluorescent dye to stain the DNA. Neurons were imaged on an InCell 2000. Neurite length was measured using ImageJ. Only β-tubulin^+ cells displaying bipolar morphology (indicative of Type I SGNs) were quantified.
To determine whether the netrin-DCC pathway is involved in GSM-induced neurite outgrowth, a function-blocking netrin antibody was applied to the media 1 h prior to addition of 1 μM test compound. After 24 h, neurons are stained with β-tubulin and only neurites from Type I neurons are analyzed. Co-application of the netrin antibody with test compound results in a significant reduction in neurite outgrowth (FIG. 4D).

DCC α-fragment [2] = test: DCC α-fragment Western blot, mouse ex vivo embryonic spinal cord; assay type: cell-based, CD-1 mice; conditions: embryonic day 15 spinal cord segments, 1 μM, 24 h, normalized to actin
From the text: (§1) Previous reports have shown that DCC (deleted in colorectal cancer) is a γ-secretase substrate. DCC is the receptor for the guidance molecule, netrin, and its activation results in neuronal axon outgrowth, axon turning and synapse formation. Embryonic spinal cords of presenilin knockout mice treated display persistent expression of the DCC α-fragment; these fragments can enhance netrin-DCC mediated events, including axon outgrowth in cultured motor neurons (Taniguchi et al., 2003, J. Biol. Chem., 278:30425-30428, and Bai et al., 2011, Cell, 144(1): 106-18). The following studies were performed using GSM, “RO”, as well as the GSI, Compound I. RO has the structure:
Spinal cords from embryonic day 15 CD-1 mice were collected and cut into 1-2 mm segments and transferred to serum-free growth media (DMEM-F12, N2 and B27 serum supplements, penicillin/streptomycin) with 1 μM RO or 1 μM Compound I. Segments were cultured for 24 h (37° C., 5% CO2) then processed for Western blot. Membranes were probed with a DCC antibody recognizing the intracellular domain and bands were normalized to actin.

DCC α-fragment [3] = test: DCC α-fragment Western blot, mouse ex vivo cochlea (spiral ganglion); assay type: cell-based, CD-1 mice; conditions: postnatal day 21 cochlea, 1 μM, 24 h, normalized to actin
From the text: as §1
Cochleae were obtained from postnatal day 21 CD-1 mice. An opening was made in the bone at the cochlear apex to allow for fluid flow. Cochlea were incubated in serum-free growth media (DMEM-F12, N2 and B27 serum supplements, penicillin/streptomycin) with 1 μM RO or 1 μM Compound I. After 24 h, spiral ganglion were isolated and processed for Western blot. Membranes were probed with a DCC antibody recognizing the intracellular domain and bands were normalized to actin.

[4] = system: synapses on inner hair cells; test: Mouse noise-induced cochlear synaptopathy, oral GSM; assay type: in vivo, CBA/J mice; conditions: 98 dB 8-16 kHz noise 2 h; oral gavage from three weeks later; fourteen days later; 32 kHz region
Experimental: Female CBA/J mice were exposed to 98 dB 8-16 kHz filtered noise for 2 hours. Three weeks later, vehicle (0.5% Methylcellulose, b.i.d.), NGP-555 (50 mg/kg, b.i.d.) or RO (10 mg/kg, q.d.) was given by oral gavage. Fourteen days later, mice were euthanized, cochlea removed, then tissue was fixed by perfusion with 4% paraformaldehyde. Cochlea were washed with calcium/magnesium free PBS then decalcified in 12.5 mM EDTA for 3 days. Cochlea were bisected with a midmodiolar cut through the oval window to apex. Individual turns were then separated and stained with antibodies against Myo6 and CtBP2. Synapses per inner hair cell were quantified on the turn containing the 32 kHz region. Consistent with literature, a decrease in synaptic density (but no decrease in inner or outer hair cell number) was observed after the 98 dB insult.

[5] = system: Type I spiral ganglion neurons; test: Type I spiral ganglion neuron neurite outgrowth with GSIs; assay type: cell-based, CD-1 mice; conditions: 24-48 h, 0.1% DMSO
Experimental: Mouse spiral ganglion neurons (SGN) were harvested from CD-1 mice (postnatal day 3 to 5), dissociated and cultured on collagen I in serum free media. Cells were treated for 24-48 h with test compound in 0.1% DMSO then immunostained with the neurite marker, Tuj1 and imaged. Neurite length was quantified using ImageJ software (developed by NIH and available publicly). Only Tuj1^+ cells with clear bipolar morphology characteristic of Type I SGNs were quantified. The test compounds were Compound I, Compound II, and RO4929097, as well as the Notch sparing GSI, BMS-708163; NT-3 was included as positive control. […] Moreover, BMS-708163, a Notch-sparing GSI, and Compound I, a Notch inhibiting GSI, both increased type I SGN neurite outgrowth (FIG. 6C).

inner hair cell synapses [6] = test: Guinea pig kanamycin-induced cochlear synaptopathy model; assay type: in vivo, Hartley guinea pigs; conditions: kanamycin 400 mg/kg i.p. 10 days; 30 μl of 2% in vehicle bilateral transtympanic on day 15; three months after
Experimental: Beginning on day 0, male Hartley guinea pigs (450-500 g) were deafened by intraperitoneal administration of kanamycin (400 mg/kg) dosed once daily for 10 consecutive days. […] A loss of synapse density in this model has not been described previously. On day 15, animals received bilateral transtympanic injections of vehicle (30 μl), crystalline Compound I (30 μl of 2% in vehicle), or crystalline Compound II (30 μl of 2% in vehicle). Three months after administration of test article, animals were euthanized and cochleae collected and stained with phalloidin and antibodies against CtBP2 and NF-200. The number of CtBP2+/NF-200+ synapses were quantified and normalized to the number of inner hair cells to obtain synapse density. Synapse density was decreased with kanamycin treatment at 14.7 and 17.3 mm from the apex of the cochlea, which in the guinea pig cochlea, tonally correlates with 16 and 32 kHz, respectively, according to the Greenwood frequency map.
Vehicle (PF10) and GSI in vehicle used in Examples 6 and 7 were prepared as follows: To 129 mL sterile water was added, 0.96 g sodium chloride, 0.59 g sodium phosphate dibasic, and 0.14 g sodium phosphate monobasic. The solution was stirred at ambient temperature and 25.6 g poloxamer 407 was added and stirred overnight to yield a clear solution. […]

inner hair cell synapses [7] = conditions: noise-exposed mice, delivery to the round window niche; cited from earlier work

## Cc1cn(-c2ccc3n(c2=O)CCN([C@@H](C)[C@@H]2CC[C@H](c4cc(F)c(Cl)cc4C(F)(F)F)O2)C3=O)cn1 [PF-06648671]
[1]
  EC50: 0.303 nM
  neurite outgrowth (length of Type I SGN neurites): dose-dependence increases

## Cc1nsc(N2C[C@H]3CC[C@@H](C2)[C@@H]3Nc2nc3c(-c4ccc(F)c(F)c4F)cccn3n2)n1 [RO]
DCC α-fragment [2]
  DCC α-fragment level compared to the vehicle group: Increase in α-fragment
[1]; Mus musculus, Neuron
  EC50: 24 nM
[1]
  neurite outgrowth (length of Type I SGN neurites): dose dependent increase
DCC α-fragment [3]
  DCC α-fragment level compared to the vehicle group: Increase in α-fragment
[4]
  number of synapses on inner hair cells (synaptic density): increase in synaptic density

## COc1ccc2c(c1)N1CCC(C)(C)C1=CC(=O)C2NC(=O)[C@H](C)NC(=O)CCC(F)(F)F (stereo partly drawn) [Compound X, 4,4,4-trifluoro-N-((2S)-1-((9-methoxy-3,3-dimethyl-5-oxo-2,3,5,6-tetrahydro-1H-benzo[f]pyrrolo[1,2-a]azepin-6-yl)amino)-1-oxopropan-2-yl)butanamide]
[5]
  lengths of Type I SGN neurites: dose-dependent increase

## CCc1cc(Nc2nc(-c3ccc(-n4cnc(C)c4)c(F)c3)cs2)c(C)cc1C [NGP555]
[1]; Mus musculus, Neuron
  EC50: 0.527 nM
[1]
  neurite outgrowth (length of Type I SGN neurites): dose dependent increase
[4]
  number of synapses on inner hair cells (synaptic density): significantly increased

## CC(C)(C(=O)NCC(F)(F)C(F)(F)F)C(=O)N[C@@H]1C(=O)Nc2ccccc2-c2ccccc21 [RO4929097, reference compound]
[5]
  lengths of Type I SGN neurites: significant increase

## NC(=O)[C@@H](CCC(F)(F)F)N(Cc1ccc(-c2ncon2)cc1F)S(=O)(=O)c1ccc(Cl)cc1 [BMS-708163, reference compound]
[5]
  lengths of Type I SGN neurites: increased

## CN1C(=O)[C@@H](NC(=O)[C@](C)(F)C(=O)NCC(F)(F)C(F)(F)F)c2ccccc2-c2ccccc21 [Compound II, (2R)-2-fluoro-2-methyl-N—[(S)-5-methyl-6-oxo-6,7-dihydro-5H-dibenzo[b,d]azepin-7-yl]-N′-(2,2,3,3,3-pentafluoropropyl)malonamide]
Inner hair cell synapses [6]
  synapse density (CtBP2+/NF-200+ synapses per inner hair cell): increased
[5]
  lengths of Type I SGN neurites: significant increase

B1: NT-3: growth factor that binds to TrkC receptors; positive control (protein, UniProt P20783 139-257, looked up)
Neurotrophin-3: YAEHKSHRGEYSVCDSESLWVTDKSSAIDIRGHQVTVLGEIKTGNSPVKQYFYETRCKEARPVKNGCRGIDDKHWNSQCKTSQTYVRALTSENNKLVGWRWIRIDTSCVCALSRKIGRT
Inner hair cell synapses [7]
  ABR wave 1 amplitude: improvement
  inner hair cell synapses: recovered inner hair cell synapses

From patent US10925872B2, “Methods of treating cochlear synaptopathy” (PIPELINE THERAPEUTICS, INC., priority 2016, dated 2021)
